≈ marks a conversion by molar mass, not a printed value. Where two headings read alike, the source gives them in different places.
How the values were obtained:
human (hACC2) = human (hACC2) (Homo sapiens, UniProt O00763); assay: In vitro ACC inhibition assay (ADP-Glo), hACC2; format: biochemical; details: Table 2b, additional results, 5 nM ACC2, 20 μM ATP, 20 μM acetyl-CoA
Protocol: The detailed procedure is as follows. […] 10 μL ADP glo reagent was added. […] 20 μL kinase detection reagent was added.

C. albicans = assay: Antifungal Activity Assay (broth microtiter MIC), C. albicans; format: cell-based, Candida albicans; details: Candida albicans, ATCC90028, 48 h
Procedure, shortened: (§1)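 MICs were scored by eye at 48 h relative to the growth control. Plates followed CLSI M27-A3, with Candida suspensions in RPMI 1640+MOPS giving a final 2.5×10^3 CFU/mL; the colonies came from Sabouraud agar grown overnight at 35 °C.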

C. krusei = assay: Antifungal Activity Assay (broth microtiter MIC), C. krusei; format: cell-based, Candida krusei; details: Pichia kudriavzevii, ATCC6258, 48 h
Procedure, shortened: as §1

C. parapsilosis = assay: Antifungal Activity Assay (broth microtiter MIC), C. parapsilosis; format: cell-based, Candida parapsilosis; details: Lodderomyces parapsilosis, ATCC22019, 48 h
Procedure, shortened: as §1

Botrtyis cinerea (Bc) = assay: Growth inhibition assay of fungal pathogens, Bc; format: cell-based; details: 48 h, growth inhibition at 48 hours vs 2% DMSO control
Procedure, shortened: (§2)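 Spores from sub-cultured plates were diluted in 17% V8 liquid medium and exposed to compound from DMSO stocks at final concentrations of 50, 10 and 2 ppm or 2, 0.4 and 0.08 ppm. OD600 and visual ratings at 48 h were compared with the 2% DMSO control to give percent growth inhibition.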

[1] = test system: Collectotrichum graminicola (Cg); assay: Growth inhibition assay of fungal pathogens, Cg; format: cell-based; details: 48 h, growth inhibition at 48 hours vs 2% DMSO control
Procedure, shortened: as §2

Diplodia maydis (Dm) = assay: Growth inhibition assay of fungal pathogens, Dm; format: cell-based; details: Stenocarpella maydis, 48 h, growth inhibition at 48 hours vs 2% DMSO control
Procedure, shortened: as §2

[2] = test system: Fusarium moniliforme (Fm); assay: Growth inhibition assay of fungal pathogens, Fm; format: cell-based; details: Fusarium verticillioides, 48 h, read-out: Concentration at 90% Inhibition Fm
Procedure, shortened: as §2

[3] = test system: Fusarium virguliforme (Fv); assay: Growth inhibition assay of fungal pathogens, Fv; format: cell-based; details: 48 h
Procedure, shortened: as §2

[4] = test system: Phytophthora capsici (Pc); assay: Growth inhibition assay of fungal pathogens, Pc; format: cell-based; details: 48 h
Procedure, shortened: as §2

Rhizoctonia solani (Rs) = assay: Growth inhibition assay of fungal pathogens, Rs; format: cell-based; details: 48 h
Septoria tritici (St) = assay: Growth inhibition assay of fungal pathogens, St; format: cell-based; details: Zymoseptoria tritici, 48 h, growth inhibition at 48 hours vs 2% DMSO control
Procedure, shortened: as §2

fungal (fACC2) = fungal (fACC2) (UniProt Q00955); details: read-out: fACC2 (in vitro ACC2 Inhibition Assay, IC50); Table 2b, additional results; ADP-Glo, 5 nM ACC2, 20 μM ATP, 20 μM acetyl-CoA
[5] = read-out: MIC, C. albicans ATCC 90028, Table 3b (additional results), 3 replicates, MIC recorded at 48 h
[6] = read-out: MIC, C. krusei ATCC 6258, Table 3b (additional results), 3 replicates, MIC recorded at 48 h
[7] = read-out: MIC, C. parapsilosis ATCC 22019, Table 3b (additional results), 3 replicates, MIC recorded at 48 h
[8] = read-out: Concentration at 90% Inhibition Bc, Botrtyis cinerea
[9] = read-out: Concentration at 90% Inhibition Cg, Collectotrichum graminicola
[10] = read-out: Concentration at 90% Inhibition Dm, Diplodia maydis
[11] = read-out: Concentration at 90% Inhibition Fv, Fusarium virguliforme, growth inhibition at 48 hours vs 2% DMSO control
[12] = read-out: Concentration at 90% Inhibition Pc, Phytophthora capsici, growth inhibition at 48 hours vs 2% DMSO control
[13] = read-out: Concentration at 90% Inhibition Rs, Rhizoctonia solani, mycelial plugs, growth inhibition at 48 hours vs 2% DMSO control
[14] = read-out: Concentration at 90% Inhibition St, Septoria tritici
[15] = Table 3b (additional results), ATCC 90028, 3 replicates, MIC recorded at 48 h, read-out: MIC, C. albicans ATCC 90028
[16] = Table 3b (additional results), ATCC 6258, 3 replicates, MIC recorded at 48 h, read-out: MIC, C. krusei ATCC 6258
[17] = Table 3b (additional results), ATCC 22019, 3 replicates, MIC recorded at 48 h, read-out: MIC, C. parapsilosis ATCC 22019
[18] = Botrtyis cinerea, read-out: Concentration at 90% Inhibition Bc
[19] = Collectotrichum graminicola, read-out: Concentration at 90% Inhibition Cg
[20] = Diplodia maydis, read-out: Concentration at 90% Inhibition Dm
[21] = Fusarium moniliforme, growth inhibition at 48 hours vs 2% DMSO control
[22] = growth inhibition at 48 hours vs 2% DMSO control, read-out: Concentration at 90% Inhibition Fv
[23] = growth inhibition at 48 hours vs 2% DMSO control, read-out: Concentration at 90% Inhibition Pc
[24] = mycelial plugs, growth inhibition at 48 hours vs 2% DMSO control, read-out: Concentration at 90% Inhibition Rs
[25] = Septoria tritici, read-out: Concentration at 90% Inhibition St

fungal (fACC2), sequence (Q00955 whole entry): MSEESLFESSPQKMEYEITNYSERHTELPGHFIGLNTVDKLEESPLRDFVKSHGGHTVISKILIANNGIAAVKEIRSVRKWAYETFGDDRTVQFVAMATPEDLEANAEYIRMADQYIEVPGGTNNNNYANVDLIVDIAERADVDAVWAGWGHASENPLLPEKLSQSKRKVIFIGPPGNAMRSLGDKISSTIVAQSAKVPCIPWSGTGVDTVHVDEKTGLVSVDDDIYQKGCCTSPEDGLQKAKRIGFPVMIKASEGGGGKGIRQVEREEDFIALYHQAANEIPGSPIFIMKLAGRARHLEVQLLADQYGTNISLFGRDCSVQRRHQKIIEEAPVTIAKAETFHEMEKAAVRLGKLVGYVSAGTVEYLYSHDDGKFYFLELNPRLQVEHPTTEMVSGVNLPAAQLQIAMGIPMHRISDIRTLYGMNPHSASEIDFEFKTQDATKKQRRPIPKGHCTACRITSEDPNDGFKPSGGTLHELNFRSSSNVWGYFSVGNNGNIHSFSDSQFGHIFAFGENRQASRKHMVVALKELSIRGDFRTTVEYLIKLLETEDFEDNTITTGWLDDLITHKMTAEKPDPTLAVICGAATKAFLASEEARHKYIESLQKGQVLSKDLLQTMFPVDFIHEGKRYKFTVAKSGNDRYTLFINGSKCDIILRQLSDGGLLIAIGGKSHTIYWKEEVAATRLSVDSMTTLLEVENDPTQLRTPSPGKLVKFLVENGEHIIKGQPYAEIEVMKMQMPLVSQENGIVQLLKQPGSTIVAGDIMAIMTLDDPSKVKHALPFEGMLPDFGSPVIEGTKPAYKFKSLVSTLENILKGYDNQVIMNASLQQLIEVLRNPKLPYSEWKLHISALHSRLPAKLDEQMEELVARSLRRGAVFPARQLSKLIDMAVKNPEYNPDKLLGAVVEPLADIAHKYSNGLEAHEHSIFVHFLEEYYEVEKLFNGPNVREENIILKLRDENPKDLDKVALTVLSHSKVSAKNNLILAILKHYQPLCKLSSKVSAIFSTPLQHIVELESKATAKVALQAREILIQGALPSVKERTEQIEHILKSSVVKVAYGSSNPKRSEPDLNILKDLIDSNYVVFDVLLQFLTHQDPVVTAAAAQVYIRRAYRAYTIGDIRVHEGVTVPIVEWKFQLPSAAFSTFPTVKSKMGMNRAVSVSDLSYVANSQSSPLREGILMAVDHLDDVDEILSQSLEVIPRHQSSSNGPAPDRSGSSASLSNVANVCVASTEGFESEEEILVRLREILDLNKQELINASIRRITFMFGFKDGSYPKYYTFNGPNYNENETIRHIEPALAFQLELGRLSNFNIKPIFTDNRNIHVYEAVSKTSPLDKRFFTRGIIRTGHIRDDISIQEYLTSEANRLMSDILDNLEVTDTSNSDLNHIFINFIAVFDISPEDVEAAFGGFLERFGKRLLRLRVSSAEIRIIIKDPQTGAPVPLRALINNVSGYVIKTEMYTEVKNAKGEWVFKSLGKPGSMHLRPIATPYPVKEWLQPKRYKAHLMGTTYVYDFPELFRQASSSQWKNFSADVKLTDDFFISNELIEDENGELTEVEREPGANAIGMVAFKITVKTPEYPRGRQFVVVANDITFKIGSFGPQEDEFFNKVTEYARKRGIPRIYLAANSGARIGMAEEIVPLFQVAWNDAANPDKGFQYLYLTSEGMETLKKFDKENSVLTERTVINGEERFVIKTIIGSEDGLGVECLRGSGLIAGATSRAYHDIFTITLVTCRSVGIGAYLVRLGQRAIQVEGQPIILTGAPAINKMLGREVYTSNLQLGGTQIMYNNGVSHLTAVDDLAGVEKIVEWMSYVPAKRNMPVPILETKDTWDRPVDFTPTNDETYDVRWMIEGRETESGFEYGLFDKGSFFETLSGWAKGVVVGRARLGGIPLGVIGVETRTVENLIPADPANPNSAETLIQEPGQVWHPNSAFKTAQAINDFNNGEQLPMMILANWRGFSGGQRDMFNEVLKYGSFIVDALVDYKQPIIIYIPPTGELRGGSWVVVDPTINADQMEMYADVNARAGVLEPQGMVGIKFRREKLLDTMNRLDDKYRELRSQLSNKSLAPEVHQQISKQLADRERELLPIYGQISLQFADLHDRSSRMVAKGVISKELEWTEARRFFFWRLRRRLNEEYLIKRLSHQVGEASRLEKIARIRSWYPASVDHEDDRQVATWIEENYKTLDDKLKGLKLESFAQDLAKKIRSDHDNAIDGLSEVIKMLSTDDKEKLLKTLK
human (hACC2), sequence (O00763 whole entry): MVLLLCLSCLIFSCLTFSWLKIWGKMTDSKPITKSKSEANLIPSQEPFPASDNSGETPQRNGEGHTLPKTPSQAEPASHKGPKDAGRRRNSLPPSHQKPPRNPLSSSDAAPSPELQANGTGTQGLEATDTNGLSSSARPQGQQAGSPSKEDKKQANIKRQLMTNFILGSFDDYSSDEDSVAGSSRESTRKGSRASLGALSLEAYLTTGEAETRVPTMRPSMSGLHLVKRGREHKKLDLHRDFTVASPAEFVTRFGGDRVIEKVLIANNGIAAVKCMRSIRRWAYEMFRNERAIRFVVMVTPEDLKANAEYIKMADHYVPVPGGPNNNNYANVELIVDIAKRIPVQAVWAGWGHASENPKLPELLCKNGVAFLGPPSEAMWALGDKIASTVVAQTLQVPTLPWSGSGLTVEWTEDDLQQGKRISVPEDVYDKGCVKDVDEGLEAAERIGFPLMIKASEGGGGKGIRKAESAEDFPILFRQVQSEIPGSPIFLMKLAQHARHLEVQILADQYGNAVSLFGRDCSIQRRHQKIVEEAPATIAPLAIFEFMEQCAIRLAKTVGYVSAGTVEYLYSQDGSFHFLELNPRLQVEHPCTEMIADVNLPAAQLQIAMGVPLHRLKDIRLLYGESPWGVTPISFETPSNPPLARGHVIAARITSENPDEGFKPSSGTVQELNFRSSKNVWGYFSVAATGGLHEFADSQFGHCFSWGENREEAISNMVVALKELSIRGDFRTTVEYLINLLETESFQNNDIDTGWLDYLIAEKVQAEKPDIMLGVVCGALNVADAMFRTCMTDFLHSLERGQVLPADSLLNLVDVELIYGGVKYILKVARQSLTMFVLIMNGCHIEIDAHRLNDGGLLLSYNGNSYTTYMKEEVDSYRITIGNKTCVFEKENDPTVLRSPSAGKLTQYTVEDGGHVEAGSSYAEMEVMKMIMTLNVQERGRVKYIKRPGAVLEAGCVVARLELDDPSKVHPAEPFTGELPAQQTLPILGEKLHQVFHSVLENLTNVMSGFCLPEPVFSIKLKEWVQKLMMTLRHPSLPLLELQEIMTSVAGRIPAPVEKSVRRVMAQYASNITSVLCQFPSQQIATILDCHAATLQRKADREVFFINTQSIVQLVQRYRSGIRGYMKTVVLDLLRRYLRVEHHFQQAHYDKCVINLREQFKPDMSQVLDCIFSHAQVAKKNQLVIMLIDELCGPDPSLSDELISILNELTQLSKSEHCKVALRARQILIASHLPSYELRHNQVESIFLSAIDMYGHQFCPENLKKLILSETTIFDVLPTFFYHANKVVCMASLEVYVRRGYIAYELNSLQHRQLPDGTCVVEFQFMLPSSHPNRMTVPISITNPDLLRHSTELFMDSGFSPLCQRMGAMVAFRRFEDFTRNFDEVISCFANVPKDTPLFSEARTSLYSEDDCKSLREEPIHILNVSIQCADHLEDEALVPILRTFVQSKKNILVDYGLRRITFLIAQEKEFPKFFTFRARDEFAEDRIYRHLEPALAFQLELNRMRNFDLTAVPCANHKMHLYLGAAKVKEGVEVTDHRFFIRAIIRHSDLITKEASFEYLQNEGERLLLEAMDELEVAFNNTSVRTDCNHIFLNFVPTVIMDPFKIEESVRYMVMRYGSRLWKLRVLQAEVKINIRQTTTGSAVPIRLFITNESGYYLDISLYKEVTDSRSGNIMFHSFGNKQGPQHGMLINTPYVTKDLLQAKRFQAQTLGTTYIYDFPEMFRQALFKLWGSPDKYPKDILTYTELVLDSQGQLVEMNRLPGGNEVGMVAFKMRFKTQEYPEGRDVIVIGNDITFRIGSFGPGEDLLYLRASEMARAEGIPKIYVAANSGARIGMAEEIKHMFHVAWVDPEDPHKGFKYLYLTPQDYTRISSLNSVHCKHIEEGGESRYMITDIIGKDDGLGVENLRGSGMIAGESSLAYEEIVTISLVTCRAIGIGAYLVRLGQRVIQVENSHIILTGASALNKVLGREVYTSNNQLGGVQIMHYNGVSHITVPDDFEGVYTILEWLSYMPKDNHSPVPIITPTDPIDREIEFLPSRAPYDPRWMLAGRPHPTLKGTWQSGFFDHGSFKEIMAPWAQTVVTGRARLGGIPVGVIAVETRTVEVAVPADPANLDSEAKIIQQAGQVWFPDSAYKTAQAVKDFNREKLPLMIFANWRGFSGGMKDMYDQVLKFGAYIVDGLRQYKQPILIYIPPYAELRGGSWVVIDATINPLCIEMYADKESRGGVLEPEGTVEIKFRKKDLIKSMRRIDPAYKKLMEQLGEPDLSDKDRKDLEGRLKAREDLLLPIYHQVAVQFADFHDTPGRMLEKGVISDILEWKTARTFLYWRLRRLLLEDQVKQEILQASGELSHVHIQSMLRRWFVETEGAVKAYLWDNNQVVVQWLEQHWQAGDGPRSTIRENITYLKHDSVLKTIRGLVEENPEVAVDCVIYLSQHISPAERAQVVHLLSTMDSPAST

Cc1c(-n2nccn2)sc2c1c(=O)n(C(C)(C)C(=O)NC(C)C)c(=O)n2C[C@H](OC(C)C)c1cc(F)ccc1CCC#N [Compound I-234]
IC50 (human (hACC2)): 10 to 40 nM
MIC (C. albicans; [5]): 2.01 to 4 µg/mL (≈ 3.3 to 6.56 µM)
MIC (C. krusei; [6]): 1.01 to 2 µg/mL (≈ 1.66 to 3.28 µM)
MIC (C. parapsilosis; [7]): 2.01 to 4 µg/mL (≈ 3.3 to 6.56 µM)
IC90 (Botrtyis cinerea (Bc); [8]): 0.4 µg/mL (≈ 0.656 µM)
IC90 [1, 9]: 0.4 µg/mL (≈ 0.656 µM)
IC90 (Diplodia maydis (Dm); [10]): 2 µg/mL (≈ 3.28 µM)
IC90 [2]: 0.08 µg/mL (≈ 0.131 µM)
IC90 [3, 11]: 0.08 µg/mL (≈ 0.131 µM)
IC90 [4, 12]: > 50 µg/mL
IC90 (Rhizoctonia solani (Rs); [13]): 0.08 µg/mL (≈ 0.131 µM)
IC90 (Septoria tritici (St); [14]): > 50 µg/mL
IC50 (fungal (fACC2)): 1 to 5 nM

Cc1c(-n2nccn2)sc2c1c(=O)n(C(C)(C)C(=O)NC(C)C)c(=O)n2C[C@H](OCC(C)(C)O)c1cc(F)ccc1OCC#N [Compound I-235]
IC50 (human (hACC2)): 10 to 40 nM
MIC (C. albicans; [5]): 0.25 to 1 µg/mL (≈ 0.39 to 1.56 µM)
MIC (C. krusei; [6]): 2.01 to 4 µg/mL (≈ 3.13 to 6.23 µM)
MIC (C. parapsilosis; [7]): 1.01 to 2 µg/mL (≈ 1.57 to 3.12 µM)
IC90 (Botrtyis cinerea (Bc); [8]): 2 µg/mL (≈ 3.12 µM)
IC90 [1, 9]: 0.4 µg/mL (≈ 0.623 µM)
IC90 (Diplodia maydis (Dm); [10]): 2 µg/mL (≈ 3.12 µM)
IC90 [2]: 0.4 µg/mL (≈ 0.623 µM)
IC90 [3, 11]: 2 µg/mL (≈ 3.12 µM)
IC90 [4, 12]: 10 µg/mL (≈ 15.6 µM)
IC90 (Rhizoctonia solani (Rs); [13]): 0.4 µg/mL (≈ 0.623 µM)
IC90 (Septoria tritici (St); [14]): > 50 µg/mL
IC50 (fungal (fACC2)): 1 to 5 nM

CCc1ccc(F)cc1[C@H](Cn1c(=O)n(C(C)(C)C(=O)NC(C)C)c(=O)c2c(C)c(-n3nccn3)sc21)OCC(C)(C)C#N [Compound I-238]
IC50 (human (hACC2)): 5 to 10 nM
MIC (C. albicans; [15]): 1.01 to 2 µg/mL (≈ 1.62 to 3.21 µM)
MIC (C. krusei; [16]): > 4.01 µg/mL
MIC (C. parapsilosis; [17]): 2.01 to 4 µg/mL (≈ 3.22 to 6.41 µM)
IC90 (Botrtyis cinerea (Bc); [18]): 0.08 µg/mL (≈ 0.128 µM)
IC90 [1, 19]: 0.08 µg/mL (≈ 0.128 µM)
IC90 (Diplodia maydis (Dm); [20]): 2 µg/mL (≈ 3.21 µM)
IC90 [2, 21]: 0.08 µg/mL (≈ 0.128 µM)
IC90 [3, 22]: 0.08 µg/mL (≈ 0.128 µM)
IC90 [4, 23]: > 50 µg/mL
IC90 (Rhizoctonia solani (Rs); [24]): 0.08 µg/mL (≈ 0.128 µM)
IC90 (Septoria tritici (St); [25]): > 50 µg/mL
IC50 (fungal (fACC2)): 1 to 5 nM

COc1ccc(F)cc1[C@H](Cn1c(=O)n(C(C)(C)C(=O)NC(C)C)c(=O)c2c(C)c(-n3nccn3)sc21)O[C@H]1C[C@@H](O)C1 [Compound I-239]
IC50 (human (hACC2)): 10 to 40 nM
MIC (C. albicans; [15]): 0.25 to 1 µg/mL (≈ 0.407 to 1.63 µM)
MIC (C. krusei; [16]): 0.25 to 1 µg/mL (≈ 0.407 to 1.63 µM)
MIC (C. parapsilosis; [17]): 0.25 to 1 µg/mL (≈ 0.407 to 1.63 µM)
IC90 (Botrtyis cinerea (Bc); [18]): 2 µg/mL (≈ 3.25 µM)
IC90 [1, 19]: 2 µg/mL (≈ 3.25 µM)
IC90 (Diplodia maydis (Dm); [20]): 2 µg/mL (≈ 3.25 µM)
IC90 [2, 21]: 0.08 µg/mL (≈ 0.13 µM)
IC90 [3, 22]: 0.4 µg/mL (≈ 0.651 µM)
IC90 [4, 23]: > 50 µg/mL
IC90 (Rhizoctonia solani (Rs); [24]): 0.08 µg/mL (≈ 0.13 µM)
IC90 (Septoria tritici (St); [25]): > 50 µg/mL
IC50 (fungal (fACC2)): 1 to 5 nM

CCc1ccc(F)cc1[C@@H](Cn1c(=O)n(C(C)(C)C(=O)NC(C)C)c(=O)c2c(C)c(-n3nccn3)sc21)OC[C@H](C)C#N [Compound I-245]
IC50 (human (hACC2)): 1 to 5 nM
MIC (C. albicans; [15]): 2.01 to 4 µg/mL (≈ 3.3 to 6.56 µM)
MIC (C. krusei; [16]): > 4.01 µg/mL
MIC (C. parapsilosis; [17]): 2.01 to 4 µg/mL (≈ 3.3 to 6.56 µM)
IC90 (Botrtyis cinerea (Bc); [18]): 0.08 µg/mL (≈ 0.131 µM)
IC90 [1, 19]: 0.08 µg/mL (≈ 0.131 µM)
IC90 (Diplodia maydis (Dm); [20]): 2 µg/mL (≈ 3.28 µM)
IC90 [2, 21]: 0.08 µg/mL (≈ 0.131 µM)
IC90 [3, 22]: 0.08 µg/mL (≈ 0.131 µM)
IC90 [4, 23]: > 50 µg/mL
IC90 (Rhizoctonia solani (Rs); [24]): 0.08 µg/mL (≈ 0.131 µM)
IC90 (Septoria tritici (St); [25]): > 50 µg/mL
IC50 (fungal (fACC2)): 0.3 to 1 nM

Cc1c(-n2nccn2)sc2c1c(=O)n(C(C)(C)C(=O)NC(C)C)c(=O)n2C[C@H](OCCC#N)c1cc(F)ccc1O [Compound I-246]
IC50 (human (hACC2)): 1 to 5 nM
MIC (C. albicans; [15]): > 4.01 µg/mL
MIC (C. krusei; [16]): 2.01 to 4 µg/mL (≈ 3.44 to 6.85 µM)
MIC (C. parapsilosis; [17]): 2.01 to 4 µg/mL (≈ 3.44 to 6.85 µM)
IC90 (Botrtyis cinerea (Bc); [18]): 2 µg/mL (≈ 3.43 µM)
IC90 [1, 19]: 2 µg/mL (≈ 3.43 µM)
IC90 (Diplodia maydis (Dm); [20]): 10 µg/mL (≈ 17.1 µM)
IC90 [2, 21]: 0.4 µg/mL (≈ 0.685 µM)
IC90 [3, 22]: 2 µg/mL (≈ 3.43 µM)
IC90 [4, 23]: 10 µg/mL (≈ 17.1 µM)
IC90 (Rhizoctonia solani (Rs); [24]): 0.4 µg/mL (≈ 0.685 µM)
IC90 (Septoria tritici (St); [25]): > 50 µg/mL
IC50 (fungal (fACC2)): 0.3 to 1 nM

CCc1ccc(F)cc1[C@@H](Cn1c(=O)n(C(C)(C)C(=O)NC(C)C)c(=O)c2c(C)c(-n3nccn3)sc21)OC[C@@H](C)C#N [Compound I-247]
IC50 (human (hACC2)): 1 to 5 nM
MIC (C. albicans; [15]): 2.01 to 4 µg/mL (≈ 3.3 to 6.56 µM)
MIC (C. krusei; [16]): > 4.01 µg/mL
MIC (C. parapsilosis; [17]): 2.01 to 4 µg/mL (≈ 3.3 to 6.56 µM)
IC90 (Botrtyis cinerea (Bc); [18]): 0.4 µg/mL (≈ 0.656 µM)
IC90 [1, 19]: 0.08 µg/mL (≈ 0.131 µM)
IC90 (Diplodia maydis (Dm); [20]): 2 µg/mL (≈ 3.28 µM)
IC90 [2, 21]: 0.08 µg/mL (≈ 0.131 µM)
IC90 [3, 22]: 0.4 µg/mL (≈ 0.656 µM)
IC90 [4, 23]: > 50 µg/mL
IC90 (Rhizoctonia solani (Rs); [24]): 0.08 µg/mL (≈ 0.131 µM)
IC90 (Septoria tritici (St); [25]): > 50 µg/mL
IC50 (fungal (fACC2)): 1 to 5 nM

Reference: patent publication US10800791B2, “Triazole ACC inhibitors and uses thereof” (Gilead Apollo, LLC, priority 2015, dated 2020)
